Experimental data taken from publication PMC5049785, “Characterization of Novel Antimalarial Compound ACT-451840: Preclinical Assessment of Activity and Dose–Efficacy Modeling” (PLoS Medicine, 2016).

Legend:
[1] = tested on: P. falciparum D6 (Sierra Leone); assay: [3H]-hypoxanthine incorporation assay, D6; format: cell-based, Plasmodium falciparum; conditions: read-out: 50% inhibitory concentration (IC50); D6, resistance MFQ; mean ± SD
P. berghei [2] = assay: In vitro (ex vivo) activity against P. berghei, [3H]-hypoxanthine incorporation; format: cell-based, Plasmodium berghei; conditions: 16 h exposure + 8 h incorporation
Experimental: In vitro (ex vivo) activity against the mouse malaria parasite P. berghei was measured at the Swiss TPH as described elsewhere, with the following modifications: heparinised blood of P. berghei infected and uninfected control female NMRI mice (final hematocrit of 2.5%) was used and exposed to compounds for 16 h followed by 8 h of [^3H]-hypoxanthine incorporation.

[3] = tested on: synchronous cultures of P. falciparum NF54; assay: In vitro time-, stage- and concentration-dependent effects; format: cell-based, Plasmodium falciparum; conditions: 6 or 24 h exposure
Experimental: In vitro time-, stage-, and concentration-dependent effects were assessed using pyrimethamine as a stage-specific and slow-acting control, as described elsewhere.

[4] = tested on: P. falciparum NF54 male gametocytes; assay: P. falciparum dual gamete formation assay, male; format: cell-based, Plasmodium falciparum; conditions: 24 h incubation; ± SD; read-out: IC50 male gamete formation (exflagellation centers)
Experimental: Mature P. falciparum NF54 gametocytes were cultured at Imperial College London (London, United Kingdom), as previously described. […] Male gamete formation was quantified by computer-aided automated identification and counting of exflagellation centers. Female gamete formation was visualized by live immunofluorescence with a Cy3-conjugated antibody specific for Pfs25—a female gamete expressed surface protein. […] IC50 values were calculated using GraphPad Prism version 6 using the logarithmic versus normalized response (variable slope) function (Graphpad Software, San Diego, US).

[5] = Single compartment PK model with saturable absorption (predicted blood PK); set-up: species or system mice; conditions: for Time over threshold (h), predicted: threshold 1,000 ng/mL
Experimental: In order to analyze the PK/PD relationship, drug exposure was predicted for all tested doses in P. berghei mouse model using a single compartment model with saturable absorption based on the concentration–time profile observed after 10, 100, and 300 mg/kg single-dose regimen in healthy mice.

P. berghei [6] = conditions: ± coefficient of variation
Experimental: A single compartment PK model with saturable absorption was obtained using naïve pooling to fit simultaneously the observed blood concentration time data from the PK studies done at a dose of 10, 100, and 300 mg/kg, as described above. Using this model, blood concentration time profiles were predicted for all dosing regimens used in the mouse antimalarial efficacy studies. Cmax, AUC, and time above a threshold concentration were subsequently calculated using non-compartmental analysis. PD modeling was done using an Emax model using Cmax, AUC, or time above a threshold concentration versus survival or antimalarial activity. All modeling and PK analyses were done using Phoenix Winonlin 6.3 (Cetara, Princeton, US).

[7] = Chromosome aberration study in vitro
[8] = Blood to plasma ratio with 14C-labeled compound; format: in vitro ADME; conditions: human fresh whole-blood, 0.5 μg/mL, 60 minutes, 37 °C
Experimental: The blood to plasma ratio was determined using ^14C-labeled ACT-451840 at Actelion Pharmaceuticals Ltd. (Allschwil, Switzerland). For this, human fresh whole-blood was spiked with a mixture of non-labeled and ^14C-labeled ACT-451840 at a nominal concentration of 0.5 μg / mL and incubated for 60 minutes on a rotary mixer at 37 °C. Radioactivity was determined by liquid scintillation counting in whole blood and after preparation of plasma.

[9] = mouse PK model parameter estimate
[10] = single-dose regimen, oral 10 mg/kg
[11] = single-dose regimen, oral 15 mg/kg
[12] = single-dose regimen, oral 20 mg/kg
[13] = single-dose regimen, oral 25 mg/kg
[14] = single-dose regimen, oral 30 mg/kg
[15] = single-dose regimen, oral 60 mg/kg
[16] = single-dose regimen, oral 80 mg/kg
[17] = single-dose regimen, oral 100 mg/kg
[18] = single-dose regimen, oral 300 mg/kg
[19] = triple-dose regimen, oral 3 mg/kg once per day
[20] = triple-dose regimen, oral 10 mg/kg once per day
[21] = triple-dose regimen, oral 30 mg/kg once per day
[22] = triple-dose regimen, oral 50 mg/kg once per day
[23] = triple-dose regimen, oral 100 mg/kg once per day
[24] = triple-dose regimen, oral 300 mg/kg once per day
[25] = triple-dose regimen, oral 2 x 15 mg/kg (twice per day)
[26] = triple-dose regimen, oral 2 x 30 mg/kg (twice per day)

With `CC(=O)N1CCN(c2ccc(CN(C(=O)/C=C/c3ccc(C(C)(C)C)cc3)[C@@H](Cc3ccccc3)C(=O)N3CCN(Cc4ccc(C#N)cc4)CC3)cc2)CC1` [ACT-451840] the IC50 [1] was 0.5 ± 0.1 nM, the IC50 (P. berghei [2]) was 13.5 nM and the “stage specificity of growth reduction” value [3] was “affected all asexual erythrocytic stages equally”. The IC50 [4] was 5.89 nM, the “total AUC giving an ED90” value ([5]; P. berghei model, triple-dose regimen of 13 mg/kg) was 16,300 ng*h/mL and the Clearance/bioavailability [5, 9] was 2.4 L/h. For the same compound, the “Concentration at half the maximal absorption” value [5, 9] was 64000 ng/mL, the “Max Absorption” value [5, 9] was 21 µg/h/kg and the Volume of distribution/bioavailability [5, 9] was 4.3 L/kg. The “Cmax (ng/mL), predicted” value [5, 10] was 617 ng/mL, the “Tmax (h), predicted” value [5, 10] was 3 h and the “Total AUC over the treatment period (ng/mL*h), predicted” value [5, 10] was 4170 ng·h/mL. For the same compound, the “Time over threshold (h), predicted” value [5, 10] was 0 h, the “Cmax (ng/mL), predicted” value [5, 11] was 901 ng/mL and the “Tmax (h), predicted” value [5, 11] was 3 h. For the same compound, the “Total AUC over the treatment period (ng/mL*h), predicted” value [5, 11] was 6260 ng·h/mL, the “Time over threshold (h), predicted” value [5, 11] was 0 h and the “Cmax (ng/mL), predicted” value [5, 12] was 1170 ng/mL. For the same compound, the “Tmax (h), predicted” value [5, 12] was 3 h, the “Total AUC over the treatment period (ng/mL*h), predicted” value [5, 12] was 8350 ng·h/mL and the “Time over threshold (h), predicted” value [5, 12] was 0 h. For the same compound, the “Cmax (ng/mL), predicted” value [5, 13] was 1420 ng/mL, the “Tmax (h), predicted” value [5, 13] was 3 h and the “Total AUC over the treatment period (ng/mL*h), predicted” value [5, 13] was 10400 ng·h/mL. For the same compound, the “Time over threshold (h), predicted” value [5, 13] was 0 h, the “Cmax (ng/mL), predicted” value [5, 14] was 1670 ng/mL and the “Tmax (h), predicted” value [5, 14] was 3 h. For the same compound, the “Total AUC over the treatment period (ng/mL*h), predicted” value [5, 14] was 12500 ng·h/mL, the “Time over threshold (h), predicted” value [5, 14] was 0 h and the “Cmax (ng/mL), predicted” value [5, 15] was 2900 ng/mL. The “Tmax (h), predicted” value [5, 15] was 4 h, the “Total AUC over the treatment period (ng/mL*h), predicted” value [5, 15] was 25100 ng·h/mL and the “Time over threshold (h), predicted” value [5, 15] was 7 h. The “Cmax (ng/mL), predicted” value [5, 16] was 3540 ng/mL, the “Tmax (h), predicted” value [5, 16] was 4 h and the “Total AUC over the treatment period (ng/mL*h), predicted” value [5, 16] was 33400 ng·h/mL. For the same compound, the “Time over threshold (h), predicted” value [5, 16] was 9 h, the “Cmax (ng/mL), predicted” value [5, 17] was 4090 ng/mL and the “Tmax (h), predicted” value [5, 17] was 6 h. The “Total AUC over the treatment period (ng/mL*h), predicted” value [5, 17] was 41800 ng·h/mL, the “Time over threshold (h), predicted” value [5, 17] was 11 h and the “Cmax (ng/mL), predicted” value [5, 18] was 6690 ng/mL. The “Tmax (h), predicted” value [5, 18] was 6.5 h, the “Total AUC over the treatment period (ng/mL*h), predicted” value [5, 18] was 126000 ng·h/mL and the “Time over threshold (h), predicted” value [5, 18] was 24 h. The “Cmax (ng/mL), predicted” value [5, 19] was 192 ng/mL, the “Tmax (h), predicted” value [5, 19] was 27 h and the “Total AUC over the treatment period (ng/mL*h), predicted” value [5, 19] was 3750 ng·h/mL. For the same compound, the “Time over threshold (h), predicted” value [5, 19] was 0 h, the “Cmax (ng/mL), predicted” value [5, 20] was 617 ng/mL and the “Tmax (h), predicted” value [5, 20] was 27 h. The “Total AUC over the treatment period (ng/mL*h), predicted” value [5, 20] was 12500 ng·h/mL, the “Time over threshold (h), predicted” value [5, 20] was 0 h and the “Cmax (ng/mL), predicted” value [5, 21] was 1,670 ng/mL. The “Tmax (h), predicted” value [5, 21] was 51 h, the “Total AUC over the treatment period (ng/mL*h), predicted” value [5, 21] was 37600 ng·h/mL and the “Time over threshold (h), predicted” value [5, 21] was 0 h. The “Cmax (ng/mL), predicted” value [5, 22] was 2530 ng/mL, the “Tmax (h), predicted” value [5, 22] was 27 h and the “Total AUC over the treatment period (ng/mL*h), predicted” value [5, 22] was 62700 ng·h/mL. For the same compound, the “Time over threshold (h), predicted” value [5, 22] was 16 h, the “Cmax (ng/mL), predicted” value [5, 23] was 4100 ng/mL and the “Tmax (h), predicted” value [5, 23] was 52 h. For the same compound, the “Total AUC over the treatment period (ng/mL*h), predicted” value [5, 23] was 125000 ng·h/mL, the “Time over threshold (h), predicted” value [5, 23] was 32 h and the “Cmax (ng/mL), predicted” value [5, 24] was 6830 ng/mL. The “Tmax (h), predicted” value [5, 24] was 54 h, the “Time over threshold (h), predicted” value [5, 24] was 72 h and the “Cmax (ng/mL), predicted” value [5, 25] was 1060 ng/mL. For the same compound, the “Tmax (h), predicted” value [5, 25] was 35 h, the “Total AUC over the treatment period (ng/mL*h), predicted” value [5, 25] was 37600 ng·h/mL and the “Time over threshold (h), predicted” value [5, 25] was 0 h. For the same compound, the “Cmax (ng/mL), predicted” value [5, 26] was 1980 ng/mL, the “Tmax (h), predicted” value [5, 26] was 59 h and the “Total AUC over the treatment period (ng/mL*h), predicted” value [5, 26] was 75200 ng·h/mL. The “Time over threshold (h), predicted” value [5, 26] was 8 h, the “Antimalarial activity EX50, X = AUC” value (P. berghei [6]; Emax model) was 8,100 (ng*h/mL) ± 35% and the “Antimalarial activity EX50, X = Cmax” value (P. berghei [6]; Emax model) was 930 (ng/mL) ± 36%. For the same compound, the “Antimalarial activity EX50, X = time above threshold” value (P. berghei [6]; Emax model) was 0.14 (h) ± 3,000%, the “Survival E0, model versus AUC” value (P. berghei [6]; Emax model) was 5.1 (day) ± 17% and the “Survival E0, model versus Cmax” value (P. berghei [6]; Emax model) was 4 (day) ± 54%. The “Survival E0, model versus time above threshold” value (P. berghei [6]; Emax model) was 5.9 (day) ± 12%, the “Survival EX50, X = AUC” value (P. berghei [6]; Emax model) was 170,000 (ng*h/mL) ± 16% and the “Survival EX50, X = Cmax” value (P. berghei [6]; Emax model) was 15,000 (ng/mL) ± 170%. For the same compound, the “Survival EX50, X = time above threshold” value (P. berghei [6]; Emax model) was 150 (h) ± 52%, the “Antimalarial activity Emax, model versus AUC” value (P. berghei [6]) was 110 (%) ± 8.3% and the “Antimalarial activity Emax, model versus Cmax” value (P. berghei [6]) was 130 (%) ± 11%. The “Antimalarial activity Emax, model versus time above threshold” value (P. berghei [6]) was 100 (%) ± 38%, the “Survival Emax, model versus AUC” value (P. berghei [6]) was 35 (day) ± 35% and the “Survival Emax, model versus Cmax” value (P. berghei [6]) was 62 (day) ± 120%. For the same compound, the “Survival Emax, model versus time above threshold” value (P. berghei [6]) was 70 (day) ± 71%, the “genotoxicity, chromosome aberration study” value [7] was “not genotoxic” and the “blood to plasma concentration ratio” value [8] was 0.6.
